The NIST ThermoML archive (doi:10.1016/j.fluid.2006.01.014)
± gives the expanded uncertainty stated by the source.

Conditions: Liquid; Ebulliometric method (Recirculating still)

C[Si](Cl)(Cl)Cl [trichloromethylsilane]
Normal boiling temperature: 66.4 ± 0.2 °C

c1ccccc1 [benzene]
Normal boiling temperature: 80.01 ± 0.2 °C

C[Si](C)(Cl)Cl [dichlorodimethylsilane]
Normal boiling temperature: 70.31 ± 0.2 °C
